For six compounds, IC50 results are on record in ChEMBL document CHEMBL1125855, “C-2 desmethyl seco-mevinic acids. Monocyclic HMG-CoA reductase inbibitors” (Bioorg Med Chem Lett, 1991).

The first assay addresses T1, 3-hydroxy-3-methylglutaryl-coenzyme A reductase (Homo sapiens, UniProt P04035).
T1 sequence (P04035 whole entry): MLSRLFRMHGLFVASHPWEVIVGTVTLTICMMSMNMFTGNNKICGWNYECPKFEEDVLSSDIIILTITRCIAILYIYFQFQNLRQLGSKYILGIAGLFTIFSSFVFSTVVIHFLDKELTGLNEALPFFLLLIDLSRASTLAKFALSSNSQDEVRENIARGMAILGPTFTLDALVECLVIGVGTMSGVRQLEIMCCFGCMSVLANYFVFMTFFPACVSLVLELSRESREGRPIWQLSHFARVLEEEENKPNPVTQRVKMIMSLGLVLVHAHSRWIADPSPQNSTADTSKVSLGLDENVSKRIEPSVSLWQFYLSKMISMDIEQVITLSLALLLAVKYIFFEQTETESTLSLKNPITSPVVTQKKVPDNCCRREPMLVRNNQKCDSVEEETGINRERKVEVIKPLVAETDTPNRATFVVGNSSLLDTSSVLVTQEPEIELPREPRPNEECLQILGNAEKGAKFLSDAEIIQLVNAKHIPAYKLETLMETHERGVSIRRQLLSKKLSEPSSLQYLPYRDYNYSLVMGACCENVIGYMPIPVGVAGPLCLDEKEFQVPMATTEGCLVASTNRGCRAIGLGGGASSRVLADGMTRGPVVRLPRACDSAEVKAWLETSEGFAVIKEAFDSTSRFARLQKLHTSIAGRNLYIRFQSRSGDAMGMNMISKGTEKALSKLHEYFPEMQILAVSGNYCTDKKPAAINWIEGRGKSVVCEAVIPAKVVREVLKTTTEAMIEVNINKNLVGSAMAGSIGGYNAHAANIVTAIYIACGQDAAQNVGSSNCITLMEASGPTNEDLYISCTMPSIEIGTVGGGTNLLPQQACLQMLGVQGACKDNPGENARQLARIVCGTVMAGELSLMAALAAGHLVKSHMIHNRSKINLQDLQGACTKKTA
The experiment in a line: (§1) In vitro ability to inhibit HMG-CoA reductase. Particulars: read-out: I50.
Regarding `CCC[C@@H]1CCC[C@H](/C=C/[C@@H](O)C[C@@H](O)CC(=O)O)[C@H]1COC(=O)C(C)(C)CC`, the IC50 is 4.9 µM. On to `CCC(C)(C)C(=O)OC[C@H]1CCCC[C@@H]1CCC(O)C[C@@H](O)CC(=O)O` (stereo partly specified), for which the IC50 came out at 4.6 µM. On the same count and under the same terms, with `C[C@H]1C=CC[C@H](COC(=O)C(C)(C)C)[C@H]1CCC(O)CC(O)CC(=O)O` (stereo partly specified) the figure was 1500 µM. On the same count and under the same terms, then `CCC[C@@H]1CCC[C@H](CC[C@@H](O)C[C@@H](O)CC(=O)O)[C@H]1COC(=O)C(C)(C)CC`, with 1.7 µM. On the same count and under the same terms, then `CCC[C@@H]1CC[C@H](C)[C@H](CC[C@@H](O)C[C@@H](O)CC(=O)O)[C@H]1COC(=O)C(C)(C)CC`, with 0.008 µM.

For the next assay, the target named is T2, 3-hydroxy-3-methylglutaryl-coenzyme A reductase (Rattus norvegicus, UniProt P51639).
T2 sequence (P51639 whole entry): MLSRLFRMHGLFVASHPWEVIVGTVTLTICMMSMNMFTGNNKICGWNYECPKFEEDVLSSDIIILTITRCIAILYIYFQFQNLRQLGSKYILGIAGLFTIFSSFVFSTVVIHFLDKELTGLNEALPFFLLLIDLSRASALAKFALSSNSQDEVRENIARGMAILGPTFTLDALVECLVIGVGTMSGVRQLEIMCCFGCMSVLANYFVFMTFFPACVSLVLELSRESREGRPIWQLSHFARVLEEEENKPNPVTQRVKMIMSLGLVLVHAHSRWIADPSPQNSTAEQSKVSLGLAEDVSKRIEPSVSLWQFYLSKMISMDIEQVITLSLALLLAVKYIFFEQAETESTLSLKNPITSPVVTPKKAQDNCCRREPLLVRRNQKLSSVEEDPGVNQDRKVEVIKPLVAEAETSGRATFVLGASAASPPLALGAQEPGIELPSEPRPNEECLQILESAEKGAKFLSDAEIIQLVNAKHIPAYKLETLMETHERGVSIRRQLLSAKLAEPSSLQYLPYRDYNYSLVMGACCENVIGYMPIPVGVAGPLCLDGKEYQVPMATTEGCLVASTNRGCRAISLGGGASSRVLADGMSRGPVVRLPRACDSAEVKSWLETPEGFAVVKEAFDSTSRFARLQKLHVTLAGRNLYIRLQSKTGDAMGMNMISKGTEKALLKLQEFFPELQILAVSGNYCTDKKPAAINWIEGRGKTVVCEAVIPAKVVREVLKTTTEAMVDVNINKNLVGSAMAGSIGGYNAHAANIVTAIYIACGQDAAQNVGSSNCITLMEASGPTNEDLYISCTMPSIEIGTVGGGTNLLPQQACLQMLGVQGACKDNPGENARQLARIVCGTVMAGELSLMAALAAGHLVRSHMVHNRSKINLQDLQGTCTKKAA
The description is as §1. Particulars: read-out: I50.
For `CC[C@H](C)C(=O)OC[C@H]1CCCC[C@@H]1CCC(=O)C[C@@H](O)CC(=O)O`, the IC50 is 320 µM.
